The record followed here is patent US6921532B1, “Biological Bioadhesive composition and methods of preparation and use” (Spinal Restoration, Inc., priority 2000, dated 2005).

This data set is described as follows: Solubility / suspension in thrombin reconstituting solution. The following applies: aqueous calcium chloride reconstituting solution. The source says: Blended betamethasone sodium phosphate and acetate solutions preferably include anti-caking agent(s) and low calcium chloride concentration(s).

For the compound `C[C@H]1C[C@H]2[C@@H]3CCC4=CC(=O)C=C[C@]4(C)[C@@]3(F)[C@@H](O)C[C@]2(C)[C@@]1(O)C(=O)COP(=O)([O-])[O-].[Na+].[Na+]` [betamethasone sodium phosphate], the solubility result is recorded as “reduced in the presence of aqueous calcium chloride”.
